Results as given in ChEMBL document CHEMBL1201862, “PubChem BioAssay data set” (2004).
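Following 48 hours of exposure in 96-well plates, responses at five concentrations were used to interpolate endpoints linearly. Abbreviation: GI50, concentration required for 50% inhibition of growth.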 The source made the active and inactive calls. Cut-off read from the data, not from the text of the source: active = GI50 up to about 1.1 µM and inactive = higher.

Key:
Assay in all cases: NCI anticancer screen, dose series, 48 h
[1] = system: M14
[2] = system: U-251
[3] = system: NCI-H23
[4] = system: SF-539
[5] = system: NCI-H460
[6] = system: MCF7
[7] = system: A498
[8] = system: HCC 2998
[9] = system: NCI-H522
[10] = system: OVCAR-3
[11] = system: SK-MEL-5
[12] = system: DU-145
[13] = system: HCT-15
[14] = system: MDA-MB-435
[15] = system: SN12C
[16] = system: SF-295
[17] = system: A549
[18] = system: SNB-19
[19] = system: NCI-H226
[20] = system: UACC-62

Row | Compound | GI50 [1] | GI50 [2] | GI50 [3] | GI50 [4] | GI50 [5] | GI50 [6] | GI50 [7] | GI50 [8] | GI50 [9] | GI50 [10] | GI50 [11] | GI50 [12] | GI50 [13] | GI50 [14] | GI50 [15] | GI50 [16] | GI50 [17] | GI50 [18] | GI50 [19] | GI50 [20]
1 | COC(=O)C1=C(C)NC2(O)C=CC(=O)C3C(=O)N(c4ccccc4)C(=O)C132 (stereo not given) | 43.1 µM (inactive) | > 100 µM (inactive) | > 100 µM (inactive) | > 100 µM (inactive) | > 100 µM (inactive) | > 100 µM (inactive) | > 100 µM (inactive) | 98.2 µM (inactive) | 32.5 µM (inactive) | 66.1 µM (inactive) | > 100 µM (inactive) | > 100 µM (inactive) | 63 µM | 64.7 µM (inactive) | > 100 µM (inactive) | > 100 µM (inactive) | > 100 µM (inactive) | > 100 µM (inactive) | > 100 µM (inactive) | 97.1 µM (inactive)
2 | C/C(=N/NC(N)=S)c1ccc[nH]1 | > 100 µM (inactive) | > 100 µM (inactive) | > 100 µM (inactive) | > 100 µM (inactive) | > 100 µM (inactive) | > 100 µM (inactive) | > 100 µM (inactive) | > 100 µM (inactive) | > 100 µM (inactive) | > 100 µM (inactive) | > 100 µM (inactive) | > 100 µM (inactive) | > 100 µM | > 100 µM (inactive) | > 100 µM (inactive) | > 100 µM (inactive) | > 100 µM (inactive) | > 100 µM (inactive) | > 100 µM (inactive) | > 100 µM (inactive)
3 | Cc1ccccc1NC(=S)N/N=C(/c1ccccc1)c1ccccn1 | < 0.027 µM (active) | < 0.01 µM (active) | < 0.01 µM (active) | 0.384 µM (active) | 0.0702 µM (active) | 0.0215 µM (active) | 0.398 µM (active) | 3.22 µM (inactive) | 0.0902 µM (active) | < 0.01 µM (active) | 0.0664 µM (active) | 0.838 µM (active) | < 0.01 µM | 0.757 µM (active) | 0.067 µM (active) | 0.0883 µM (active) | 0.0428 µM (active) | 1.62 µM (inactive) | 0.0295 µM (active) | 0.171 µM (active)
4 | O=C(CCc1ccc(O)c(O)c1)NCCc1cc(O)c(O)c(O)c1 | 22.4 µM (inactive) | 17.9 µM (inactive) | 15.8 µM (inactive) | > 100 µM (inactive) | 20.6 µM (inactive) | 8.93 µM (inactive) | > 100 µM (inactive) | > 100 µM (inactive) | 17.2 µM (inactive) | 19.8 µM (inactive) | 23.3 µM (inactive) | 64.7 µM (inactive) | 16.4 µM | 17.6 µM (inactive) | 17.9 µM (inactive) | 19 µM (inactive) | 22.5 µM (inactive) | > 100 µM (inactive) | 34.3 µM (inactive) | 90.8 µM (inactive)
5 | Nc1ncc(N)c(NCC2(CO)CC(CCc3ccccc3)C2)n1 (stereo not given) | 11.4 µM (inactive) | 6.58 µM (inactive) | 5.13 µM (inactive) | 2.7 µM (inactive) | 13.1 µM (inactive) | 3.37 µM (inactive) | 13.5 µM (inactive) | 11.3 µM (inactive) | 0.718 µM (active) | 2.26 µM (inactive) | 3.13 µM (inactive) | 11.2 µM (inactive) | 13.9 µM | 11 µM (inactive) | 7.67 µM (inactive) | 11.1 µM (inactive) | 9.73 µM (inactive) | 11.1 µM (inactive) | 5.83 µM (inactive) | 5.81 µM (inactive)
6 | O=C(NNC(=S)Nc1ccc(Cl)cc1)C12CC3CC(CC(C3)C1)C2 | 7.74 µM (inactive) | 3.6 µM (inactive) | 7.5 µM (inactive) | 3.93 µM (inactive) | 2.97 µM (inactive) | 3.37 µM (inactive) | 4.82 µM (inactive) | 7.1 µM (inactive) | 3.58 µM (inactive) | 2.45 µM (inactive) | 3.85 µM (inactive) | 11.6 µM (inactive) | 3.18 µM | 7.53 µM (inactive) | 6.52 µM (inactive) | 5.87 µM (inactive) | 3.84 µM (inactive) | 5.15 µM (inactive) | 10.7 µM (inactive) | 3.88 µM (inactive)
7 | Cc1nc2c(=O)n(C)c(=O)nc-2n(CCO)c1C | > 100 µM (inactive) | > 100 µM (inactive) | > 100 µM (inactive) | > 100 µM (inactive) | > 100 µM (inactive) | > 100 µM (inactive) | > 100 µM (inactive) | > 100 µM (inactive) | > 100 µM (inactive) | > 100 µM (inactive) | > 100 µM (inactive) | > 100 µM (inactive) | > 100 µM | > 100 µM (inactive) | > 100 µM (inactive) | > 100 µM (inactive) | > 100 µM (inactive) | > 100 µM (inactive) | > 100 µM (inactive) | > 100 µM (inactive)
